Measurements taken from the supplement of paper PMC9663587.

Legend:
THZ1 = compound: CN(C)C/C=C/C(=O)Nc1ccc(C(=O)Nc2cccc(Nc3ncc(Cl)c(-c4c[nH]c5ccccc45)n3)c2)cc1 [THZ1]; experiment: GR value, 72 h; higher = faster growth (1 = untreated, <0 = killing);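 note: breast cancer and non-malignant breast epithelial lines, nine half-log doses, viable cells counted by Hoechst and LIVE/DEAD dye imaging versus time-zero plates and DMSO controls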
LEE011/Ribociclib = compound: CN(C)C(=O)c1cc2cnc(Nc3ccc(N4CCNCC4)cn3)nc2n1C1CCCC1 [LEE011/Ribociclib]; experiment: as above
YKL-5-124 = compound: C=CC(=O)Nc1ccc(C(=O)Nc2[nH]nc3c2CN(C(=O)N[C@H](CN(C)C)c2ccccc2)C3(C)C)cc1 [YKL-5-124]; experiment: as above
[1] = compound: CCN1CCN(Cc2ccc(Nc3ncc(F)c(-c4cc(F)c5nc(C)n(C(C)C)c5c4)n3)nc2)CC1; experiment: as above
Flavopiridol [2] = compound: T1, CN1CC[C@H](c2c(O)cc(O)c3c(=O)cc(-c4ccccc4Cl)oc23)[C@H](O)C1 [Flavopiridol]; experiment: as above
THZ531 = compound: CN(C)C/C=C/C(=O)Nc1ccc(C(=O)N2CCC[C@@H](Nc3ncc(Cl)c(-c4c[nH]c5ccccc45)n3)C2)cc1 [THZ531]; experiment: as above
[3] = compound: CCc1cnn2c(NCc3ccc[n+]([O-])c3)cc(N3CCCC[C@H]3CCO)nc12; experiment: as above
[4] = compound: CC(=O)c1c(C)c2cnc(Nc3ccc(N4CCNCC4)cn3)nc2n(C2CCCC2)c1=O; experiment: as above
Neratinib/HKI272 = compound: CCOc1cc2ncc(C#N)c(Nc3ccc(OCc4ccccn4)c(Cl)c3)c2cc1NC(=O)/C=C/CN(C)C [Neratinib/HKI272]; experiment: as above
BSJ-03-123 = compound: CC(=O)c1c(C)c2cnc(Nc3ccc(N4CCN(CCOCCOCCOCCNC(=O)COc5cccc6c5C(=O)N(C5CCC(=O)NC5=O)C6=O)CC4)cn3)nc2n(C2CCCC2)c1=O [BSJ-03-123]; experiment: as above
[5] = compound: CCN1CCN(Cc2ccc(Nc3ncc(F)c(-c4cc(F)c5nc(C)n(C(C)C)c5c4)n3)nc2)CC1; experiment: increase in dead-cell fraction, 72 h; higher = more death;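 note: breast cancer cell lines in 384-well plates, stained with Hoechst plus LIVE/DEAD far red dye and imaged, cells above an LDR intensity threshold counted dead, Hoechst-negative corpses included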
Flavopiridol [6] = compound: T1, Flavopiridol; experiment: as above

Cell Line: HCC38
- GR value (THZ1; 0.0001 µM): 1.1 GR
- GR value (THZ1; 0.0003162 µM): 1.05 GR
- GR value (THZ1; 0.001 µM): 1.05 GR
- GR value (THZ1; 0.003162 µM): 0.951 GR
- GR value (THZ1; 0.01 µM): 0.724 GR
- GR value (THZ1; 0.03162 µM): 0.452 GR
- GR value (THZ1; 0.1 µM): -0.224 GR
- GR value (THZ1; 0.3162 µM): -0.367 GR
- GR value (THZ1; 1 µM): -0.572 GR
- GR value (LEE011/Ribociclib; 0.001 µM): 0.807 GR
- GR value (LEE011/Ribociclib; 0.003162 µM): 0.769 GR
- GR value (LEE011/Ribociclib; 0.01 µM): 0.692 GR
- GR value (LEE011/Ribociclib; 0.03162 µM): 0.727 GR
- GR value (LEE011/Ribociclib; 0.1 µM): 0.577 GR
- GR value (LEE011/Ribociclib; 0.3162 µM): 0.511 GR
- GR value (LEE011/Ribociclib; 1 µM): 0.532 GR
- GR value (LEE011/Ribociclib; 3.162 µM): 0.4 GR
- GR value (LEE011/Ribociclib; 10 µM): 0.239 GR
- GR value (YKL-5-124; 0.001 µM): 0.436 GR
- GR value (YKL-5-124; 0.003162 µM): 0.282 GR
- GR value (YKL-5-124; 0.01 µM): 0.219 GR
- GR value (YKL-5-124; 0.03162 µM): 0.111 GR
- GR value (YKL-5-124; 0.1 µM): 0.0509 GR
- GR value (YKL-5-124; 0.3162 µM): -0.0003 GR
- GR value (YKL-5-124; 1 µM): -0.0242 GR
- GR value (YKL-5-124; 3.162 µM): -0.079 GR
- GR value (YKL-5-124; 10 µM): -0.393 GR
- GR value ([1]; 0.001 µM): 0.924 GR
- GR value ([1]; 0.003162 µM): 0.846 GR
- GR value ([1]; 0.01 µM): 0.738 GR
- GR value ([1]; 0.03162 µM): 0.452 GR
- GR value ([1]; 0.1 µM): 0.275 GR
- GR value ([1]; 0.3162 µM): 0.206 GR
- GR value ([1]; 1 µM): 0.122 GR
- GR value ([1]; 3.162 µM): -0.0767 GR
- GR value ([1]; 10 µM): -0.335 GR
- GR value (Flavopiridol [2]; 0.0001 µM): 0.986 GR
- GR value (Flavopiridol [2]; 0.0003162 µM): 0.927 GR
- GR value (Flavopiridol [2]; 0.001 µM): 0.962 GR
- GR value (Flavopiridol [2]; 0.003162 µM): 0.855 GR
- GR value (Flavopiridol [2]; 0.01 µM): 0.897 GR
- GR value (Flavopiridol [2]; 0.03162 µM): 0.814 GR
- GR value (Flavopiridol [2]; 0.1 µM): 0.591 GR
- GR value (Flavopiridol [2]; 0.3162 µM): 0.182 GR
- GR value (Flavopiridol [2]; 1 µM): -0.439 GR
- GR value (THZ531; 0.0001 µM): 0.922 GR
- GR value (THZ531; 0.0003162 µM): 1.03 GR
- GR value (THZ531; 0.001 µM): 1.04 GR
- GR value (THZ531; 0.003162 µM): 0.998 GR
- GR value (THZ531; 0.01 µM): 1.07 GR
- GR value (THZ531; 0.03162 µM): 1.02 GR
- GR value (THZ531; 0.1 µM): 0.765 GR
- GR value (THZ531; 0.3162 µM): 0.0587 GR
- GR value (THZ531; 1 µM): -0.335 GR
- GR value ([3]; 0.0001 µM): 0.989 GR
- GR value ([3]; 0.0003162 µM): 1.05 GR
- GR value ([3]; 0.001 µM): 1.05 GR
- GR value ([3]; 0.003162 µM): 1.14 GR
- GR value ([3]; 0.01 µM): 0.761 GR
- GR value ([3]; 0.03162 µM): -0.374 GR
- GR value ([3]; 0.1 µM): -0.453 GR
- GR value ([3]; 0.3162 µM): -0.435 GR
- GR value ([3]; 1 µM): -0.453 GR
- GR value ([4]; 0.0003162 µM): 1.03 GR
- GR value ([4]; 0.001 µM): 1.06 GR
- GR value ([4]; 0.003162 µM): 0.926 GR
- GR value ([4]; 0.01 µM): 0.889 GR
- GR value ([4]; 0.03162 µM): 0.604 GR
- GR value ([4]; 0.1 µM): 0.398 GR
- GR value ([4]; 0.3162 µM): 0.31 GR
- GR value ([4]; 1 µM): 0.239 GR
- GR value ([4]; 3.162 µM): 0.133 GR
- GR value (Neratinib/HKI272; 0.0003162 µM): 1.02 GR
- GR value (Neratinib/HKI272; 0.001 µM): 1.03 GR
- GR value (Neratinib/HKI272; 0.003162 µM): 0.987 GR
- GR value (Neratinib/HKI272; 0.01 µM): 0.96 GR
- GR value (Neratinib/HKI272; 0.03162 µM): 0.879 GR
- GR value (Neratinib/HKI272; 0.1 µM): 0.951 GR
- GR value (Neratinib/HKI272; 0.3162 µM): 0.823 GR
- GR value (Neratinib/HKI272; 1 µM): 0.846 GR
- GR value (Neratinib/HKI272; 3.162 µM): 0.456 GR
- GR value (BSJ-03-123; 0.001 µM): 0.699 GR
- GR value (BSJ-03-123; 0.003162 µM): 0.719 GR
- GR value (BSJ-03-123; 0.01 µM): 0.468 GR
- GR value (BSJ-03-123; 0.03162 µM): 0.463 GR
- GR value (BSJ-03-123; 0.1 µM): 0.454 GR
- GR value (BSJ-03-123; 0.3162 µM): 0.419 GR
- GR value (BSJ-03-123; 1 µM): 0.341 GR
- GR value (BSJ-03-123; 3.162 µM): 0.306 GR
- GR value (BSJ-03-123; 10 µM): -0.0958 GR
- increase in dead-cell fraction ([5]; 0.001 µM): 0.0177
- increase in dead-cell fraction ([5]; 0.003162 µM): 0.0096
- increase in dead-cell fraction ([5]; 0.01 µM): 0.0258
- increase in dead-cell fraction ([5]; 0.03162 µM): 0.0545
- increase in dead-cell fraction ([5]; 0.1 µM): 0.0758
- increase in dead-cell fraction ([5]; 0.3162 µM): 0.0601
- increase in dead-cell fraction ([5]; 1 µM): 0.0699
- increase in dead-cell fraction ([5]; 3.162 µM): 0.0988
- increase in dead-cell fraction ([5]; 10 µM): 0.415
- increase in dead-cell fraction (Flavopiridol [6]; 0.0001 µM): -0.0026
- increase in dead-cell fraction (Flavopiridol [6]; 0.0003162 µM): -0.0024
- increase in dead-cell fraction (Flavopiridol [6]; 0.001 µM): -0.0081
- increase in dead-cell fraction (Flavopiridol [6]; 0.003162 µM): 0.0129
- increase in dead-cell fraction (Flavopiridol [6]; 0.01 µM): 0.0083
- increase in dead-cell fraction (Flavopiridol [6]; 0.03162 µM): 0.0066
- increase in dead-cell fraction (Flavopiridol [6]; 0.1 µM): 0.0013
- increase in dead-cell fraction (Flavopiridol [6]; 0.3162 µM): 0.112
- increase in dead-cell fraction (Flavopiridol [6]; 1 µM): 0.449
